Data: US10258556B2, “Anti-aging peptide, its composition and method of using the same” (priority 2017, dated 2019)
Residues, ends and D or L forms follow the SMILES beside them.

System: CCD-966SK fibroblast cells
Assay: MTT assay (cell viability)
Type: cell-based, human
Conditions: peptide at different concentrations, 24, 48 and 72 hours, FIG. 3
Method: CCD-966SK was skin fibroblast cells isolated from human breast and was purchased from BCRC (Bioresource Collection and Research Center, Hsinchu, Taiwan). It was cultured in Dulbecco's Modified Eagle Medium (DMEM) containing 10% (v/v) FBS and penicillin/streptomycin (100 IU/[…]) in 5% CO2 at 37° C.
The cells (3×10^3) in 100 μl complete DMEM were seeded in 96-well plates with or without MUC20 peptide NO.10. Ten microliters of 5 mg/ml 3-(4,5-dimethyl-2-thiazolyl)-2,5-diphenyl-2H-tetrazolium bromide solution (MTT; Sigma) was added to each well and incubated at 37° C. for 3 hours. After that, 100 μl 10% SDS in 0.01N HCl was added to dissolve the MTT formazan crystals. The resultant optical density was measured by spectrophotometry at dual wavelengths, 550 and 630 nm.
The cell viability of the CCD-966SK fibroblast cells was analyzed by MTT assays. The results were obtained from three independent experiments. The results of the cells treated with the peptide of SEQ ID NO: 1 for 24 hours (upper panel), 48 hours (middle panel), and 72 hours (lower panel) were shown in FIG. 3.

## C[C@H](NC(=O)[C@H](CCC(=O)O)NC(=O)[C@@H](NC(=O)[C@H](CO)NC(=O)[C@H](CC(=O)O)NC(=O)[C@@H]1CCCN1)[C@@H](C)O)C(=O)N[C@@H](CCCCN)C(=O)O [peptide of SEQ ID NO: 1, ProAspSerThrGluAlaLys] (H-PDSTEAK-OH)
  viability of the CCD-966SK fibroblast cells: did not significantly affect viability
